Patent US20030124084A1, “Use of dehydroepiandrosterone and/or precursors or derivatives thereof to improve papery aspect of the skin” (priority 2000, published 2003)

What was measured:
Format in all cases: in vivo, human
[1] = tested on: skin of the face; experiment: Clinical scores of texture and flaccidness of the skin of the face
Protocol: (§1) This test was performed simultaneously with the one described in example 2, by applying the same products, onto the same groups of individuals, and under the same conditions, except that the products were applied to the skin of the face.
The texture of the skin and the flaccidness were assessed under blind conditions by the same clinician and are represented by clinical scores ranging from 0 (unpronounced or relatively unpronounced parameter) to 9 (very pronounced parameter).
(§2) The statistical analysis was performed by Wilcoxon tests.

[2] = tested on: weathered appearance of the skin; experiment: Clinical score of the weathered appearance of the skin, back of the hand, treated hand vs control hand
Protocol: A gelled oil-in-water emulsion containing 1% by weight of DHEA as sole active agent was tested in comparison with a vehicle consisting of an identical emulsion but not containing DHEA.
The products were tested on a group of forty women aged from 55 to 70. Half of the individuals applied the vehicle and the other half applied the DHEA-based emulsion, the choice of the individuals being made according to a computer-generated randomization. The emulsion was applied in the morning and in the evening for four months to the back of only one hand, the other hand serving as a control. The amounts applied were controlled by weighing the tubes at the start and end of the test.
The weathered appearance is assessed clinically under blind conditions on the back of each hand, at the start of the test and after four months, by the same clinician. The weathered appearance is represented by a clinical score ranging from 0 (weathered appearance absent or relatively unpronounced) to 9 (very pronounced weathered appearance).
The statistical analysis is performed by Wilcoxon tests.

[3] = tested on: skin of the face; experiment: Elasticity of the skin by Dermal Torque Meter
Protocol: as §1
The elasticity of the skin was assessed, at the start of the test and after four months, using the apparatus available under the tradename Dermal Torque Meter® from DTM® Dia-Stron Limited, Andover, Hampshire, United Kingdom. This apparatus makes it possible to study the response of the skin to a deformation applied in the direction parallel to its surface, as described in Escoffier C et al., Age-Related Mechanical Properties of Human Skin: an in Vivo Study, J. Invest. Dermatol., 1989, 93:353-357.
as §2

[4] = after four months, 1% DHEA emulsion topical on face, score 0 to 9
[5] = four months vs placebo, Wilcoxon test
[6] = start of test, face, score 0 to 9

With `C[C@]12CC[C@H](O)CC1=CC[C@@H]1[C@@H]2CC[C@]2(C)C(=O)CC[C@@H]12` [DHEA, dehydroepiandrosterone] the “Flaccidness clinical score, T4” value [1, 4] was 4.15, the “Texture clinical score, T4” value [1, 4] was 3.8 and the “effect of topical application on flaccidness of the skin” value [1, 5] was “does not significantly modify”. For the same molecule, the “effect of topical application on texture of the skin” value [1, 5] was “does not significantly modify”, the “Flaccidness clinical score, T0” value [1, 6] was 4.45 and the “Texture clinical score, T0” value [1, 6] was 4. For the same molecule, the “score for the weathered appearance on the treated hand vs control hand” value ([2]; after four months, 1% DHEA emulsion topical morning and evening on back of one hand, score 0 to 9, significant at p=0.05) was “lower”, the “difference in scores of the weathered appearance between the two hands” value ([2]; initial time (To), clinical score 0 to 9, women aged 55 to 70) was “virtually nonexistent” and the “Elasticity, T4” value ([3]; after four months, 1% DHEA emulsion topical on face, Dermal Torque Meter) was 0.66. The “effect of topical application on elasticity of the skin” value [3, 5] was “does not significantly modify” and the “Elasticity, T0” value ([3]; start of test, face, Dermal Torque Meter) was 0.77.
